{"source": "patent US8372808B2", "about": "“Suppression of glial fibrillary acidic protein” (Wisconsin Alumni Research Foundation, priority 2008, dated 2013)", "key": {"[1]": {"system": "2.2 kb human GFAP promoter", "assay": "hGFAP promoter luciferase activity assay in 172.9 cells (primary astrocytes from dual luciferase transgenic mice)", "assay_type": "cell-based"}, "mGFAP protein": {"system": "mGFAP protein", "assay": "cell-based GFAP protein level assay (cell-based ELISA) in 172.9 cells", "set-up": "species or system mouse", "conditions": "tertiary screen; 48 hr exposure; at the MTDcc"}, "GFAP protein": {"system": "GFAP protein", "assay": "sandwich ELISA for GFAP protein in 172.9 cells, quaternary screen", "assay_type": "cell-based, mouse", "conditions": "10 days of exposure, 0-20 μM", "method": "Compounds were tested at eight different concentrations ranging from 0-20 μM. In addition, GFAP protein levels were measured using a sandwich ELISA, which has greater sensitivity and is more accurate than the cell-based ELISA used in the primary screens.\nThe extracts were harvested from each well and the total GFAP content of each well was measured by a sandwich ELISA as described below. Briefly, separate microtiter plates were coated with SMI-26 anti-GFAP mouse monoclonal antibody cocktail (1:1000, Covance, diluted in PBS) overnight at 4° C., rinsed 3 times in PBS, and then blocked with Blotto (5% nonfat milk/PBS) for 2 h at RT. Samples from the astrocyte cell lysate (20 μl per well) were loaded onto the plates and brought up to 100 μl with 0.5% Triton X-100/PBS (a buffer used for subsequent antibody incubations and rinses), and incubated with a rabbit polyclonal anti-GFAP antibody (1:5000, DAKO) overnight at 4° C. The plates were rinsed three times and then incubated with HRP-conjugated goat anti-rabbit IgG (1:30,000, Sigma) for 2 h at RT. After three final rinses, peroxidase activity was detected using the Super Signal Femto maximum Sensitivity Substrate (Pierce) with a GloRunner microplate luminometer (Turner Biosystems). The GFAP content in the samples was determined from a standard curve generated using serial dilutions of purified GFAP (Research Diagnostics)."}, "GFAP promoter": {"system": "GFAP promoter", "assay": "GFAP promoter activity in brain of Tg172.9 mice (Dual-Glo luciferase assay)", "assay_type": "in vivo, mouse", "method": "Controls were injected with vehicle only. Brains were collected at various times post-injection, and analyzed for GFAP promoter activity using the Dual-Glo assay. Graphs present the mean±SEM (n=4 at each data point). Statistical significance was evaluated by unpaired t-test (* p<0.05). […] Brains were collected at 6 hours post-injection and analyzed for GFAP promoter activity using the Dual-Glo assay. Graphs present the mean±SD (n=4 at each data point). Statistical significance was evaluated by unpaired t-test (* p<0.05).\nAnother group of mice were injected with the same volume of vehicle alone (n=15). Brains were bisected sagittally with one half analyzed for GFAP promoter activity using the Dual-Glo assay, and the other half analyzed for GFAP protein using the sandwich ELISA. FIG. 7A is a bar graph showing hGFAP promoter activity of clomipramine-treated mice. The mice show a 26% reduction in hGFAP promoter activity compared to vehicle-treated controls. FIG. 7B is a bar graph showing the GFAP protein levels of clomipramine-treated mice. The mice show a 57% reduction in total GFAP content compared to vehicle-treated controls. Graphs present the mean±SD (* p<0.05, ***p<0.001, unpaired t-test).\nAt various times after injection, from 0-48 hours, brains were harvested for measurement of GFAP promoter activity using the Dual-Glo luciferase assay, and GFAP protein using a sandwich ELISA.\nInjections were given in the afternoon, between 3-5 PM. Controls were transgenic littermates injected with vehicle alone. At the end of the three week course of injections (and one day after the last injection), brains were harvested for analysis of GFAP promoter activity and protein levels as described above.\nTo achieve significant reductions of GFAP protein in vivo may require chronic treatments, given the slow turnover of this protein. […] Controls were injected with vehicle alone. One day after the last injection, brains were harvested and assayed for both GFAP promoter activity and GFAP protein."}, "[2]": {"conditions": "sometimes considered in combination with desmethyl-clomipramine; cited from earlier work"}}, "data": [{"smiles": "CN(C)CCCN1c2ccccc2CCc2ccc(Cl)cc21", "note": "[clomipramine]", "values": [{"measurement": "concentrations found effective in cultured astrocytes", "setting": "[1]; cultured astrocytes", "result": "5 to 10", "unit": "µM"}, {"measurement": "reductions in luciferase activity", "setting": "[1]; quaternary screen, 10 days of exposure, 0-20 μM", "result": "consistent reductions"}, {"measurement": "% GFAP reductions, luciferace expression from hGFAP promoter", "setting": "[1]; tertiary screen, 48 hr exposure, at the MTDcc", "result": 66, "unit": "%"}, {"measurement": "% GFAP reductions, mGFAP protein via ELISA", "setting": "mGFAP protein", "result": 20.6, "unit": "%"}, {"measurement": "reductions in GFAP protein levels", "setting": "GFAP protein", "result": "consistent reductions"}, {"measurement": "reduction in GFAP promoter activity compared to vehicle-treated controls", "setting": "GFAP promoter; 40 mg/kg IP every other day for 3 weeks", "result": 26, "unit": "%"}, {"measurement": "time at which promoter activity returned to normal", "setting": "GFAP promoter; single 40 mg/kg IP, brain", "result": "≤ 24", "unit": "h"}, {"measurement": "time of peak reduction in promoter activity after injection", "setting": "GFAP promoter; single 40 mg/kg IP, brain", "result": "4 to 6", "unit": "h"}, {"measurement": "reduction in promoter activity", "setting": "GFAP promoter; single injection of 40 mg/kg IP, brains collected at 4 hours after injection", "result": 38, "unit": "%"}, {"measurement": "effect on promoter activity", "setting": "GFAP promoter; single injection, doses of 5-20 mg/kg IP", "result": "without effect"}, {"measurement": "plasma concentration considered therapeutic in humans", "setting": "[2]", "result": "300 to 1750", "unit": "nM"}]}]}
